EC50 data for six molecules are collected here from patent US10414811B2, “Protease-resistant lipidated GLP-1 analogs” (MEDIMMUNE LIMITED, priority 2015, dated 2019).

Assay type in all cases: cell-based
Assay [1] deals with T1, human glucose-dependent insulinotropic peptide receptor (GIPR) (Homo sapiens, UniProt P48546).
T1 construct: expressed in transfected cells
T1 sequence (P48546 22-466): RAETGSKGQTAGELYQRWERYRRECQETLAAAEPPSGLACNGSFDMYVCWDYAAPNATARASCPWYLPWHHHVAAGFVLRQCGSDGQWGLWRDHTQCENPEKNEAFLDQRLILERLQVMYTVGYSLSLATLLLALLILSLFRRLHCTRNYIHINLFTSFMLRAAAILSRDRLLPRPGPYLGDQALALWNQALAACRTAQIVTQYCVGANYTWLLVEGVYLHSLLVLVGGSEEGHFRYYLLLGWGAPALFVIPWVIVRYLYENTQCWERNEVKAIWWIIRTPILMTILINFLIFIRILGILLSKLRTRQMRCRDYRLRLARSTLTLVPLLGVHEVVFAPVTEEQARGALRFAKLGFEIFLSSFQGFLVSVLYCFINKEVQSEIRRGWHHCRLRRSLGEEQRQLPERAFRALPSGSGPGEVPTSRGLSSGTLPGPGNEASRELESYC
Kind of assay: cAMP assay, human GIPR cells. Summed up: (§1)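 Peptide-stimulated cAMP measured by two-step HTRF after a 30 min room-temperature incubation with receptor-expressing cells (hGLP-1R, hGIPR at 1×10^5 cells/ml; hGCGR at 2×10^5 cells/ml). Duplicate dilutions; EC50 from 4-parameter logistic fit of % Delta F.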

Assay [2] concerns the target T2, human glucagon receptor (GCGR) (Homo sapiens, UniProt P47871).
T2 construct: expressed in transfected cells
Kind of assay: cAMP assay, human GCGR cells. A digest of the protocol:
as §1
On the technique in general: Changes in cAMP serve as a functional read-out for many G protein-coupled receptors.

Assay [3] deals with T3, human GLP-1 receptor (GLP-1R) (Homo sapiens, UniProt P43220).
T3 construct: expressed in transfected cells
In words: cAMP assay, human GLP-1R cells. A digest of the protocol: as §1

Where [4] appears, read: cAMP assay, first determination (n1), read-out: Primary assay EC50 GIP-R (n1).
[5] abbreviates: cAMP assay, second determination (n2), read-out: Primary assay EC50 GIP-R (n2).
The mark [6] stands for this setting: cAMP assay, first determination (n1), read-out: Primary assay EC50 Gluc-R (n1).
Where [7] appears, read: cAMP assay, second determination (n2), read-out: Primary assay EC50 Gluc-R (n2).
[8] abbreviates: cAMP assay, first determination (n1), read-out: Primary assay EC50 GLP-1R n1.
Where [9] appears, read: cAMP assay, second determination (n2), read-out: Primary assay EC50 GLP-1R n2.
Setting [10] is: mean of n1 and n2, read-out: Mean pM GLP-1R.
Setting [11] is: tris-lipidated peptides, first replicate, read-out: Primary assay EC50 GIP-R (n1).
Where [12] appears, read: tris-lipidated peptides, first replicate, read-out: Primary assay EC50 Gluc-R (n1).
[13] abbreviates: tris-lipidated peptides, mean of n1 and n2, read-out: Primary assay EC50 Mean pM GLP-1R.
Setting [14] is: tris-lipidated peptides, replicate n1, read-out: Primary assay EC50 GLP-1R n1.
Where [15] appears, read: tris-lipidated peptides, replicate n2, read-out: Primary assay EC50 GLP-1R n2.

Read-outs that look alike come from different tables or passages of the source. Numbered stars: 1 amine (or outer) side, 2 acyl side, 3 side chain; on linkers, the order of the positions; unused ones are H or OH. Square brackets hold non-standard residues; d marks the D form. Side chains are listed from the residue outwards. Peptide text beside a SMILES is read from it. * marks the point of attachment. γGlu = O=C(O)[C@H](CCC(=O)[*:2])N[*:1]; αMeF = C[C@](N)(Cc1ccccc1)C(=O)O; αMeK = C[C@](N)(CCCCN)C(=O)O; Lauroyl = CCCCCCCCCCCC(=O)*; αMeS = C[C@](N)(CO)C(=O)O; AEEA = NCCOCCOCC(=O)O; Aib = CC(C)(N)C(=O)O

T3 sequence (P43220 24-463): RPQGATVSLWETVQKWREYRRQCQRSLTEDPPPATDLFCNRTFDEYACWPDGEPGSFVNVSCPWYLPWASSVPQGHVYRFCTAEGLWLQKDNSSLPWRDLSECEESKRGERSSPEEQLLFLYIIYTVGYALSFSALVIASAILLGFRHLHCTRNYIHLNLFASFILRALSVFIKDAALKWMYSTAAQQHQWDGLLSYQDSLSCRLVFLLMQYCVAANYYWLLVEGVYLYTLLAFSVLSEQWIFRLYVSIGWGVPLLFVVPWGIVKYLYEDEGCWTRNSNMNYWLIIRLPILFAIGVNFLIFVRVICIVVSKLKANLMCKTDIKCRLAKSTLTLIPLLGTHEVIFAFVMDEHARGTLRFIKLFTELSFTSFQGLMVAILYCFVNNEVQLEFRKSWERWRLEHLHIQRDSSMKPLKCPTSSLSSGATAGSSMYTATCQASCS
T2 sequence (P47871 26-477): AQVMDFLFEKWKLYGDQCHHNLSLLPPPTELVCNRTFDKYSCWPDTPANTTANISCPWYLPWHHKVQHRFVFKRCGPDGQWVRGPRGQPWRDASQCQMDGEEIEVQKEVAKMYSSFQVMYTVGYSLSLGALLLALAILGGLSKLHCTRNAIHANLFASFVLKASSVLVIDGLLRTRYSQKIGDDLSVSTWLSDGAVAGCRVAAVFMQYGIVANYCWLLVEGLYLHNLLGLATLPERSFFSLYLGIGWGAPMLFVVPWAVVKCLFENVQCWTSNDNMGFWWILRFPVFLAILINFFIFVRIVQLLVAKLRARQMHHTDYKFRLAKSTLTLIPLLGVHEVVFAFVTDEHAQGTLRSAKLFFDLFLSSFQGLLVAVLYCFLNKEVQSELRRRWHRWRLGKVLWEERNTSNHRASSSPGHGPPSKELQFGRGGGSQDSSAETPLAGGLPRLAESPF

On to `CCCCCCCCCCCCCCCC(=O)N[C@@H](CCC(=O)NCCCC[C@H](NC(=O)[C@H](CCCNC(=N)N)NC(=O)CNC(=O)[C@H](CCCCN)NC(=O)[C@@H](NC(=O)[C@H](CC(C)C)NC(=O)[C@H](Cc1c[nH]c2ccccc12)NC(=O)[C@H](C)NC(=O)[C@@H](NC(=O)[C@H](Cc1ccccc1)NC(=O)[C@H](CCC(=O)O)NC(=O)[C@H](CCCCN)NC(=O)[C@H](C)NC(=O)[C@H](C)NC(=O)[C@H](CCC(N)=O)NC(=O)CNC(=O)[C@H](CCC(=O)O)NC(=O)[C@H](CC(C)C)NC(=O)[C@H](Cc1ccc(O)cc1)NC(=O)[C@H](CO)NC(=O)[C@H](CO)NC(=O)[C@@H](NC(=O)[C@H](CC(=O)O)NC(=O)[C@H](CO)NC(=O)[C@@H](NC(=O)[C@H](Cc1ccccc1)NC(=O)[C@@H](NC(=O)CNC(=O)[C@H](CCC(=O)O)NC(=O)C(C)(C)NC(=O)[C@@H](N)Cc1c[nH]cn1)[C@@H](C)O)[C@@H](C)O)C(C)C)[C@@H](C)CC)C(C)C)C(N)=O)C(=O)O` [compound 5], for which the EC50 was ≥ 81 nM in assay [1] (setting [4]); ≥ 81 nM in assay [1] (setting [5]); ≥ 81 nM in assay [2] (setting [6]); ≥ 81 nM in assay [2] (setting [7]); 7.5 pM in assay [3] (setting [8]); 5.5 pM in assay [3] (setting [9]). In addition, in assay [3] (setting [10]), the EC50 came out at 6.5 pM.

`CC[C@H](C)[C@H](NC(=O)[C@](C)(Cc1ccccc1)NC(=O)[C@H](CCC(=O)O)NC(=O)[C@](C)(CCCCN)NC(=O)[C@H](C)NC(=O)[C@H](C)NC(=O)[C@H](CCC(=O)O)NC(=O)CNC(=O)[C@H](CCC(=O)O)NC(=O)[C@H](CC(C)C)NC(=O)[C@](C)(Cc1ccccc1)NC(=O)[C@H](CO)NC(=O)[C@](C)(CO)NC(=O)[C@@H](NC(=O)[C@H](CC(=O)O)NC(=O)CNC(=O)[C@@H](NC(=O)[C@](C)(Cc1ccccc1)NC(=O)[C@H](CO)NC(=O)CNC(=O)[C@H](CCC(=O)O)NC(=O)C(C)(C)NC(=O)[C@@H](N)Cc1c[nH]cn1)[C@@H](C)O)C(C)C)C(=O)N[C@@H](C)C(=O)N[C@@](C)(Cc1ccccc1)C(=O)N[C@H](C(=O)N[C@H](C(=O)N[C@@](C)(CCCCN)C(=O)NCC(=O)NCC(N)=O)C(C)C)C(C)C` [compound 25] (H-H[Aib]EGS[αMeF]TGDV[αMeS]S[αMeF]LEGEAA[αMeK]E[αMeF]IA[αMeF]VV[αMeK]GG-NH2): the EC50 was ≥ 100 nM in assay [1] (setting [4]); ≥ 100 nM in assay [1] (setting [5]); ≥ 100 nM in assay [2] (setting [6]); 22 nM in assay [2] (setting [7]); 500 pM in assay [3] (setting [8]); 590 pM in assay [3] (setting [9]). In assay [3] (setting [10]), the EC50 is 544 pM.

For `CCCCCCCCCCCC(=O)N[C@@H](CCC(=O)NCCOCCOCC(=O)NCCOCCOCC(=O)NCCCC[C@H](NC(=O)[C@H](CCC(=O)O)NC(=O)[C@H](CCCCNC(=O)COCCOCCNC(=O)COCCOCCNC(=O)CC[C@H](NC(=O)CCCCCCCCCCC)C(=O)O)NC(=O)[C@H](Cc1ccc(O)cc1)NC(=O)[C@H](CO)NC(=O)[C@](C)(CO)NC(=O)[C@@H](NC(=O)[C@H](CC(=O)O)NC(=O)[C@H](CO)NC(=O)[C@@H](NC(=O)[C@](C)(Cc1ccccc1)NC(=O)[C@H](CO)NC(=O)CNC(=O)[C@H](CCC(=O)O)NC(=O)C(C)(C)NC(=O)[C@@H](N)Cc1c[nH]cn1)[C@@H](C)O)C(C)C)C(=O)N[C@@H](CCC(=O)O)C(=O)N[C@@H](C)C(=O)N[C@@H](C)C(=O)N[C@@](C)(CCCCN)C(=O)N[C@@H](CCC(=O)O)C(=O)N[C@@H](Cc1ccccc1)C(=O)N[C@H](C(=O)N[C@@H](C)C(=O)N[C@@H](Cc1ccccc1)C(=O)N[C@@H](CCCCNC(=O)COCCOCCNC(=O)COCCOCCNC(=O)CC[C@H](NC(=O)CCCCCCCCCCC)C(=O)O)C(=O)N[C@H](C(=O)N[C@@H](CCC(=O)O)C(=O)NCC(=O)NCC(N)=O)C(C)C)[C@@H](C)CC)C(=O)O` [compound 483] (H-H[Aib]EGS[αMeF]TSDV[αMeS]SYK([AEEA-AEEA-γGlu-Lauroyl])EK([AEEA-AEEA-γGlu-Lauroyl])EAA[αMeK]EFIAFK([AEEA-AEEA-γGlu-Lauroyl])VEGG-NH2; N-terminus assumed), the EC50 in assay [1] (setting [11]) was ≥ 19.6 nM; in assay [2] (setting [12]), ≥ 19.6 nM; in assay [3] (setting [13]) it was 244 pM; in assay [3] (setting [14]), 229 pM; in assay [3] (setting [15]), 258 pM.

Consider `CCCCCCCCCCCCCCCCCC(=O)NCCOCCOCC(=O)NCCCC[C@H](NC(=O)[C@H](C)NC(=O)[C@H](C)NC(=O)[C@H](CCC(=O)O)NC(=O)CNC(=O)[C@H](CCC(=O)O)NC(=O)[C@H](CC(C)C)NC(=O)[C@](C)(Cc1ccccc1)NC(=O)[C@H](CO)NC(=O)[C@](C)(CO)NC(=O)[C@@H](NC(=O)[C@H](CC(=O)O)NC(=O)[C@H](CO)NC(=O)[C@@H](NC(=O)[C@](C)(Cc1ccccc1)NC(=O)[C@H](CO)NC(=O)CNC(=O)[C@H](CCC(=O)O)NC(=O)C(C)(C)NC(=O)[C@@H](N)Cc1c[nH]cn1)[C@@H](C)O)C(C)C)C(=O)N[C@@H](CCC(=O)O)C(=O)N[C@@](C)(Cc1ccccc1)C(=O)N[C@H](C(=O)N[C@@H](C)C(=O)N[C@@](C)(Cc1ccccc1)C(=O)N[C@H](C(=O)N[C@H](C(=O)N[C@@](C)(CCCCN)C(=O)NCC(=O)NCC(N)=O)C(C)C)C(C)C)[C@@H](C)CC` [compound 152], for which the EC50 in assay [1] (setting [4]) was ≥ 28 nM; in assay [1] (setting [5]), ≥ 28 nM; in assay [2] (setting [6]) it was ≥ 28 nM; in assay [2] (setting [7]), ≥ 28 nM; in assay [3] (setting [8]) it was 39 pM; in assay [3] (setting [9]) it was 31 pM. Moreover, in assay [3] (setting [10]), the EC50 is 34.7 pM.

In the case of `CCCCCCCCCCCC(=O)N[C@@H](CCC(=O)N[C@@H](CCC(=O)N[C@@H](CCC(=O)NCCCC[C@H](NC(=O)[C@H](C)NC(=O)[C@H](C)NC(=O)[C@H](CCC(=O)O)NC(=O)CNC(=O)[C@H](CCC(=O)O)NC(=O)[C@H](CC(C)C)NC(=O)[C@](C)(Cc1ccccc1)NC(=O)[C@H](CO)NC(=O)[C@](C)(CO)NC(=O)[C@@H](NC(=O)[C@H](CC(=O)O)NC(=O)[C@H](CO)NC(=O)[C@@H](NC(=O)[C@](C)(Cc1ccccc1)NC(=O)[C@H](CO)NC(=O)CNC(=O)[C@H](CCC(=O)O)NC(=O)C(C)(C)NC(=O)[C@@H](N)Cc1c[nH]cn1)[C@@H](C)O)C(C)C)C(=O)N[C@@H](CCC(=O)O)C(=O)N[C@@](C)(Cc1ccccc1)C(=O)N[C@H](C(=O)N[C@@H](C)C(=O)N[C@@](C)(Cc1ccccc1)C(=O)N[C@H](C(=O)N[C@H](C(=O)N[C@@](C)(CCCCN)C(=O)NCC(=O)NCC(N)=O)C(C)C)C(C)C)[C@@H](C)CC)C(=O)O)C(=O)O)C(=O)O` [compound 130], the EC50 in assay [1] (setting [4]) was ≥ 26 nM; in assay [1] (setting [5]) it was ≥ 26 nM; in assay [2] (setting [6]) it was ≥ 26 nM; in assay [2] (setting [7]), ≥ 26 nM; in assay [3] (setting [8]), 16 pM; in assay [3] (setting [9]), 13 pM. Further, the EC50 in assay [3] (setting [10]) came out at 14.4 pM.

Turning to `CCCCCCCCCCCC(=O)N[C@@H](CCC(=O)NCCOCCOCC(=O)NCCOCCOCC(=O)NCCCC[C@H](NC(=O)[C@H](C)NC(=O)[C@@H](NC(=O)[C@H](Cc1ccccc1)NC(=O)[C@H](CCC(=O)O)NC(=O)[C@](C)(CCCCN)NC(=O)[C@H](C)NC(=O)[C@H](CCCCNC(=O)COCCOCCNC(=O)COCCOCCNC(=O)CC[C@H](NC(=O)CCCCCCCCCCC)C(=O)O)NC(=O)[C@H](CCC(=O)O)NC(=O)CNC(=O)[C@H](CCC(=O)O)NC(=O)[C@H](CC(C)C)NC(=O)[C@H](CCCCNC(=O)COCCOCCNC(=O)COCCOCCNC(=O)CC[C@H](NC(=O)CCCCCCCCCCC)C(=O)O)NC(=O)[C@H](CO)NC(=O)[C@](C)(CO)NC(=O)[C@@H](NC(=O)[C@H](CC(=O)O)NC(=O)[C@H](CO)NC(=O)[C@@H](NC(=O)[C@](C)(Cc1ccccc1)NC(=O)[C@H](CO)NC(=O)CNC(=O)[C@H](CCC(=O)O)NC(=O)C(C)(C)NC(=O)[C@@H](N)Cc1c[nH]cn1)[C@@H](C)O)C(C)C)[C@@H](C)CC)C(=O)N[C@H](C(=O)N[C@H](C(=O)N[C@@H](CCC(=O)O)C(=O)NCC(=O)NCC(N)=O)C(C)C)C(C)C)C(=O)O` [compound 465] (H-H[Aib]EGS[αMeF]TSDV[αMeS]SK([AEEA-AEEA-γGlu-Lauroyl])LEGEK([AEEA-AEEA-γGlu-Lauroyl])A[αMeK]EFIAK([AEEA-AEEA-γGlu-Lauroyl])VVEGG-NH2), the EC50 is 20 nM in assay [1] (setting [11]); 20 nM in assay [2] (setting [12]); 117 pM in assay [3] (setting [13]); 101 pM in assay [3] (setting [14]); 133 pM in assay [3] (setting [15]).
